Laboratory results reported in PMC10569036.

Assay: shake flask on a mixture of 185; loss from the water phase only; LC-Orbitrap peak areas
Conditions: room
For `CC(=O)CCc1ccc(OC(C)=O)cc1`, the “log partition 1-octanol / HPLC water, unbuffered, traces of methanol / DMSO” value (“log partition 1-octanol / HPLC water” for short) was -0.06689 log10, the “log partition butyl acetate / HPLC water, unbuffered, traces of methanol / DMSO” value (shortened to “log partition butyl acetate / HPLC water”) was 0.7696 log10 and the “log partition chloroform / HPLC water, unbuffered, traces of methanol / DMSO” value (“log partition chloroform / HPLC water” below) was 1.426 log10. The “log partition cyclohexane / HPLC water, unbuffered, traces of methanol / DMSO” value (shortened to “log partition cyclohexane / HPLC water”) was -0.7757 log10, the “log partition dichloromethane / HPLC water, unbuffered, traces of methanol / DMSO” value was 1.412 log10 and the “log partition n-hexane / HPLC water, unbuffered, traces of methanol / DMSO” value (from here on “log partition n-hexane / HPLC water”) was -1.074 log10. For the same compound, the “log partition n-octane / HPLC water, unbuffered, traces of methanol / DMSO” value (from here on “log partition n-octane / HPLC water”) was -1.39 log10, the “log partition n-undecane / HPLC water, unbuffered, traces of methanol / DMSO” value (from here on “log partition n-undecane / HPLC water”) was -1.078 log10 and the “log partition oleylalcohol / HPLC water, unbuffered, traces of methanol / DMSO” value (“log partition oleylalcohol / HPLC water” below) was -0.5711 log10. For the same compound, the “log partition toluene / HPLC water, unbuffered, traces of methanol / DMSO” value (“log partition toluene / HPLC water” for short) was -0.2898 log10. With `CCCCNS(=O)(=O)c1ccccc1` the “log partition 1-octanol / HPLC water” value was 0.09093 log10, the “log partition butyl acetate / HPLC water” value was -0.4267 log10 and the “log partition chloroform / HPLC water” value was 0.044 log10. For the same compound, the “log partition cyclohexane / HPLC water” value was -0.2649 log10, the “log partition dichloromethane / HPLC water, unbuffered, traces of methanol / DMSO” value was -0.02662 log10 and the “log partition n-hexane / HPLC water” value was -0.2215 log10. The “log partition n-octane / HPLC water” value was -0.4356 log10, the “log partition n-undecane / HPLC water” value was -0.4781 log10 and the “log partition oleylalcohol / HPLC water” value was 0.1238 log10. For the same compound, the “log partition toluene / HPLC water” value was -0.1107 log10. In the case of `CC(=O)/C=C/c1ccccc1`, the “log partition 1-octanol / HPLC water” value is reported as 0.1948 log10, the “log partition butyl acetate / HPLC water” value is reported as -0.04199 log10 and the “log partition chloroform / HPLC water” value is reported as -0.02485 log10. The “log partition cyclohexane / HPLC water” value was -0.3829 log10, the “log partition dichloromethane / HPLC water, unbuffered, traces of methanol / DMSO” value was -0.0685 log10 and the “log partition n-hexane / HPLC water” value was -0.3815 log10. The “log partition n-octane / HPLC water” value was -0.655 log10, the “log partition n-undecane / HPLC water” value was -0.7862 log10 and the “log partition oleylalcohol / HPLC water” value was -0.0887 log10. For the same compound, the “log partition toluene / HPLC water” value was -0.2533 log10. For `c1ccc(CCCc2ccncc2)cc1`, the “log partition 1-octanol / HPLC water” value was 0.08604 log10, the “log partition butyl acetate / HPLC water” value was -0.4137 log10 and the “log partition chloroform / HPLC water” value was -0.0585 log10. For the same compound, the “log partition cyclohexane / HPLC water” value was -0.2421 log10, the “log partition dichloromethane / HPLC water, unbuffered, traces of methanol / DMSO” value was 0.1807 log10 and the “log partition n-hexane / HPLC water” value was -0.1192 log10. The “log partition n-octane / HPLC water” value was -0.1298 log10, the “log partition n-undecane / HPLC water” value was -0.4578 log10 and the “log partition oleylalcohol / HPLC water” value was -0.2233 log10. For the same compound, the “log partition toluene / HPLC water” value was -0.2508 log10. In the case of `O=C1C=CC(=O)N1c1ccc(Cc2ccc(N3C(=O)C=CC3=O)cc2)cc1`, the “log partition 1-octanol / HPLC water” value is reported as -0.1715 log10, the “log partition butyl acetate / HPLC water” value is reported as -0.4086 log10 and the “log partition chloroform / HPLC water” value is reported as -0.4673 log10. The “log partition cyclohexane / HPLC water” value was -0.523 log10, the “log partition dichloromethane / HPLC water, unbuffered, traces of methanol / DMSO” value was 0.07258 log10 and the “log partition n-hexane / HPLC water” value was -0.4156 log10. The “log partition n-octane / HPLC water” value was -0.5042 log10, the “log partition n-undecane / HPLC water” value was -0.6476 log10 and the “log partition oleylalcohol / HPLC water” value was -0.3131 log10. The “log partition toluene / HPLC water” value was 0.01296 log10. In the case of `CCCCC(CC)C(=O)OCCOCCOCCOCCOC(=O)C(CC)CCCC` (centres unmarked), the “log partition 1-octanol / HPLC water” value is reported as 1.119 log10, the “log partition butyl acetate / HPLC water” value is reported as -0.08786 log10 and the “log partition chloroform / HPLC water” value is reported as -0.484 log10. The “log partition cyclohexane / HPLC water” value was -2.242 log10, the “log partition dichloromethane / HPLC water, unbuffered, traces of methanol / DMSO” value was -0.03133 log10 and the “log partition n-hexane / HPLC water” value was -1.802 log10. For the same compound, the “log partition n-octane / HPLC water” value was -2.665 log10, the “log partition n-undecane / HPLC water” value was -0.9886 log10 and the “log partition oleylalcohol / HPLC water” value was 1.482 log10. For the same compound, the “log partition toluene / HPLC water” value was 0.3117 log10. In the case of `COC(=O)c1ccc(C(=O)OC)c(C(=O)OC)c1`, the “log partition 1-octanol / HPLC water” value is reported as 1.294 log10, the “log partition butyl acetate / HPLC water” value is reported as 0.7248 log10 and the “log partition chloroform / HPLC water” value is reported as 1.573 log10. The “log partition cyclohexane / HPLC water” value was 1.164 log10, the “log partition dichloromethane / HPLC water, unbuffered, traces of methanol / DMSO” value was 1.169 log10 and the “log partition n-hexane / HPLC water” value was 0.9609 log10. The “log partition n-octane / HPLC water” value was 1.205 log10, the “log partition n-undecane / HPLC water” value was 0.9207 log10 and the “log partition oleylalcohol / HPLC water” value was 0.6631 log10. The “log partition toluene / HPLC water” value was 1.185 log10. With `CN1COCN(Cc2cnc(Cl)s2)C1=N[N+](=O)[O-]` the “log partition 1-octanol / HPLC water” value was -0.1952 log10, the “log partition butyl acetate / HPLC water” value was 0.2434 log10 and the “log partition chloroform / HPLC water” value was 1.267 log10. The “log partition cyclohexane / HPLC water” value was -1.812 log10, the “log partition dichloromethane / HPLC water, unbuffered, traces of methanol / DMSO” value was 1.869 log10 and the “log partition n-hexane / HPLC water” value was -1.862 log10. For the same compound, the “log partition n-octane / HPLC water” value was -1.749 log10, the “log partition n-undecane / HPLC water” value was -1.056 log10 and the “log partition oleylalcohol / HPLC water” value was -0.5161 log10. The “log partition toluene / HPLC water” value was -0.2331 log10.
